{
  "source": "paper PMC10877564",
  "about": "“Activity of Gut-Derived Nisin-like Lantibiotics against Human Gut Pathogens and Commensals” (ACS Chemical Biology, 2024)",
  "key": {"[1]": {"tested_on": "Coprococcus eutactus MSK.18.32", "assay": "MIC assay, anaerobic broth dilution", "type": "cell-based", "conditions": "SAR study blauticin versus nisin O, Figure 4", "source_text": "(§1) Antibiotic treatment may result in collateral damage to commensal bacteria in the human microbiome, leading to dysbiosis and susceptibility to various diseases.[44] How lantibiotics impact Gram-positive commensals from the human gut has remained unclear. Therefore, we performed antimicrobial activity tests of these lantibiotics against selected Gram-positive human gut commensals, most of which belong to the Lachnospiraceae family, one of the most abundant bacterial families in the human gut.[27] In general, human gut commensals were more susceptible to the set of investigated lantibiotics compared to pathogens (Figure 3).\n(§2) Elution Buffer (4 M guanidine hydrochloride, 20 mM Tris HCl, pH 7.5 at 25 °C, 100 mM NaCl, 1 M imidazole). Peptides eluted from the Ni resin were concentrated and desalted using 3 kDa Amicon filters (Millipore). For leader peptide removal, the peptide (1:20 trypsin to peptide) was incubated with the trypsin protease in 50 mM Tris-HCl, pH 8 overnight at 37 °C. Lastly, the core peptides were further purified with HPLC using an Agilent 1200 instrument (Agilent) as specified in general methods. About 1.5 mg recombinant peptide was obtained after HPLC purification per […]\n(§3) All MIC assays were performed under anaerobic condition. […] Lantibiotics were dissolved in DPBS, and concentrations were determined by BCA assay (Pierce) according to the manufacturer’s protocol. […]"}, "[2]": {"tested_on": "panel of Gram-positive human pathogens (VRE, MRSA, MRSE, L. monocytogenes, C. difficile)", "assay": "MIC assay against the panel of Gram-positive human pathogens", "type": "cell-based", "conditions": "pathogen panel, Figure 3A-E; anaerobic", "source_text": "Next, we set out to test the antimicrobial activities of these purified lantibiotics against a panel of Gram-positive bacteria that are representatives of some of the most prevalent human pathogens: VRE, Methicillin-resistant S. aureus USA300 (MRSA), Methicillin-resistant Staphylococcus epidermidis SK135 (MRSE), Listeria monocytogenes 10403S, and Clostridioides difficile VPI10463. We examined the growth of bacteria in a 96-well plate under a concentration gradient of lantibiotics under anaerobic conditions (Figure S2B).\nas §2\nPurification of blauticin from Blautia producta SCSK\nStationary anaerobic culture of BPSCSK was inoculated 1:100 to 1 L BHIS. Culture was incubated on a heating plate at 37 °C with 220 rpm stirring for 2 days in an anaerobic chamber. Bacteria were pelleted with 15,000 x g centrifugation for 15 min. The supernatant was acidified with acetic acid to pH 5.5 and filtered through a 0.22 um filter. Filtered supernatant was loaded onto a HiTrap SP HP column using an AKTA Pure FPLC, which was eluted sequentially with 3 CV of distilled water, 200 mM NaCl, 400 mM NaCl, 600 mM NaCl, 800 mM NaCl, and 1 M NaCl. The 800 mM NaCl eluate was concentrated with a 3 kDa Amicon filter, followed by dialyzation with DPBS using a 3 kDa Amicon filter. Purification of blauticin was confirmed by SDS-PAGE, VRE inhibition in vitro assay, and MALDI-TOF MS. […]\n(§4) For broth cultures, isolates were grown in pre-reduced BHI supplemented with 5 g/L yeast extract (Difco, BD) and 0.1% L-cysteine under anaerobic condition.\n(§5) Minimal Inhibition Concentration (MIC) assay\n(§6) All MIC assays were performed under anaerobic condition. Stationary bacterial culture in BHIS (BHI supplemented with 5 g/L yeast extract and 0.1% L-cysteine) were inoculated 1:100 to wells containing 200 µL BHIS in U-bottom 96-well plates. Lantibiotics were dissolved in DPBS, and concentrations were determined by BCA assay (Pierce) according to the manufacturer’s protocol.\nLantibiotic stock solutions were added to wells to reach desired final concentration, with 3-fold serial dilution across rows to create concentration gradients. Bacteria-inoculated wells without lantibiotics served as control. […]"}, "[3]": {"assay": "Liposome permeabilization assay, liposomes with lipid II", "type": "biochemical", "conditions": "375 nM lantibiotic; DOPC with 0.1 mol% lipid II, 50 µM phospholipid; pyranine fluorescence, 30 min, room temperature; three replicates; Figure S7B", "description": "(§7) To further investigate the mechanisms of action of these nisin-like lantibiotics, we performed liposome permeabilization assays using liposomes with or without lipid II (Figure S7).\n(§8) Liposome Permeabilization Assay\n(§9) To prepare pyranine encapsulated liposomes, DOPC (25 mg/mL in CHCl3, purchased from Avanti) was deposited into a vial and mixed with lipid II (dissolved in 2:1 CHCl3: MeOH, prepared chemoenzymatically).6 The solvent was removed using a stream of N2 leaving a thin film. Residual solvent was removed by storing it overnight in a vacuum desiccator. The film was rehydrated in buffer (5 mM Tricine, 5 mM MES, 5 mM NaCl, 1 mM pyranine pH = 6.0) and suspended with vortexing. The suspension was subjected to freeze-thaw three times before extrusion through a […] polycarbonate filter (21 passes). Excess pyranine was removed by passing the liposome solution through a Sephadex G-50 column previously equilibrated with buffer (5 mM Tricine, 5 mM MES, 5 mM NaCl, pH = 6.0). The eluted liposome solution containing the highest concentration of encapsulated pyranine (as determined visually with a UV lamp) was immediately placed on ice. Phospholipid concentration was determined by NMR as described previously.7 To measure liposome permeabilization, to a 96 well black polystyrene plate was added buffer (5 mM Tricine, 5 mM MES, 5 mM NaCl, pH = 8.0; 97 µL) and liposome solution (3 µL; 50 µM phospholipid concentration during assay). The wells were allowed to equilibrate for 8 min at room temperature then antibiotic was added. The antibiotic concentration in each well was 375 nM.\n(§10) Pyranine fluorescence was monitored for 30 min then Triton X-100 was added to a final concentration of 0.1% and pyranine fluorescence was monitored for an additional 5 min. The pyranine fluorescence signal was max-min normalized. […]\n(§11) Fig. S7 Liposome permeabilization assays of nisin-like lantibiotics. (A) Scheme of liposome […]\n(§12) low fluorescence. Fluorescence increases upon liposome permeabilization and pH increase . (B) Fraction of liposomes permeabilized by lantibiotics (375 nM). Liposomes were composed of DOPC with or without 0.1 mol% lipid II. Error bars represent the standard of deviation of three […]\n(§13) (1 picture or pasted object on this page, not shown here)"}, "[4]": {"assay": "Liposome permeabilization assay, liposomes without lipid II", "type": "biochemical", "conditions": "375 nM lantibiotic; DOPC, 50 µM phospholipid; pyranine fluorescence, 30 min; three replicates; Figure S7", "description": "as §7, §8, §9, §10, §11, §12, §13"}, "C. comes MSK.11.23": {"tested_on": "C. comes MSK.11.23", "assay": "MIC assay, anaerobic broth dilution", "type": "cell-based, Coprococcus comes", "conditions": "Figure 3; anaerobic MIC assay", "source_text": "as §1, with “3). […]” for “3).”\nIsolation of human gut commensal bacteria\nIsolation and growth of commensal bacteria was done as previously reported.5 Briefly, fresh donor fecal samples were transferred into an anaerobic chamber (Coy Labs) within 1 h of collection. The anaerobic chamber was maintained using a gas mix consisting of 5% hydrogen, 5% carbon dioxide and 90% nitrogen, and hydrogen was maintained at ~3.0% using an anaerobic gas infuser. Fecal samples were resuspended in pre-reduced PBS and plated on Columbia blood agar or brain-heart infusion (BHI – Difco, BD) agar plates in three serial 10-fold dilutions and incubated at 37 °C for 48 – 96 h. Isolated colonies were re-streaked for purity onto Columbia blood agar and frozen in pre-reduced 10% glycerol in PBS.\nas §4, §5, §6\nLantibiotic stock solutions were added to wells to reach desired final concentration, with 3-fold serial dilution across rows to create concentration gradients. Bacteria-inoculated wells without lantibiotics served as control. Plates were incubated at 37 °C for 48 h before being taken out of the anaerobic chamber for centrifugation. Plates were imaged with an iBright 1500 imager […]\npellets than those without lantibiotics were identified as MIC."}, "[5]": {"tested_on": "selected Gram-positive human gut commensals", "assay": "MIC assay against the panel of Gram-positive human gut commensals", "type": "cell-based", "conditions": "commensal panel, Figure 3F-M; anaerobic", "source_text": "as §1, §2, §3"}},
  "note": "No end group written: not given here.",
  "data": [
    {"substance": "MAKFDDFDLDVTKTAAGEGGVEPRITSKSLCTPGCVTGILMTCPVQTATCGCQITGK (also: bicyclic or more (positions not given here)) [blauticin, class I lantibiotic of Blautia producta SCSK, heterologously produced in E. coli in mixed dehydration states]", "values": [
      {"measurement": "inhibition (MIC) of C. eutactus, comparison in words", "setting": "[1]", "result": "lower MIC than nisin O"},
      {"measurement": "inhibitory activity against pathogens based on MIC (ranking in words)", "setting": "[2]", "result": "intermediate activities"},
      {"measurement": "permeabilization of lipid II-containing liposomes (in words)", "setting": "[3]", "result": "strongly induced permeabilization"},
      {"measurement": "permeabilization of liposomes without lipid II compared to liposomes with lipid II (in words)", "setting": "[4]", "result": "decreased permeabilization activities"}
    ]},
    {"substance": "MAKFDDFDLDVTKTAAQGGIEPKYKSKSVCTPGCPTGILMTCPLKTATCGCHITGK (also: bicyclic or more (positions not given here)) [Lan-Df, novel nisin-like class I lantibiotic from Dorea formicigenerans, close homologue of nisin O]", "values": [
      {"measurement": "sensitivity of C. comes MSK.11.23 to the lantibiotic (in words)", "setting": "C. comes MSK.11.23", "result": "relatively resistant"},
      {"measurement": "inhibitory activity against pathogens based on MIC (ranking in words)", "setting": "[2]", "result": "strongest inhibitory activities"},
      {"measurement": "antimicrobial activity against human gut commensals (ranking in words)", "setting": "[5]", "result": "generally more effective in growth inhibition"},
      {"measurement": "permeabilization of lipid II-containing liposomes (in words)", "setting": "[3]", "result": "strongly induced permeabilization"},
      {"measurement": "permeabilization of liposomes without lipid II compared to liposomes with lipid II (in words)", "setting": "[4]", "result": "decreased permeabilization activities"}
    ]},
    {"substance": "nisin O", "values": [
      {"measurement": "sensitivity of C. comes MSK.11.23 to the lantibiotic (in words)", "setting": "C. comes MSK.11.23", "result": "relatively resistant"},
      {"measurement": "inhibitory activity against pathogens based on MIC (ranking in words)", "setting": "[2]", "result": "nisin A and Lan-Df had the strongest inhibitory activities against pathogens based on their MIC, followed by nisin O"},
      {"measurement": "permeabilization of lipid II-containing liposomes (in words)", "setting": "[3]", "result": "strongly induced permeabilization"},
      {"measurement": "permeabilization of liposomes without lipid II compared to liposomes with lipid II (in words)", "setting": "[4]", "result": "decreased permeabilization activities"}
    ]}
  ]
}
